Assay results published in patent publication US11618747B2, “LXR modulators with bicyclic core moiety” (OrsoBio, Inc., priority 2018, dated 2023).
pEC50: −log10 of the molar value.

Molecular target: T1, LXRβ ligand-binding domain (Homo sapiens, UniProt P55055, DUP175-175)
T1 construct: amino acids 156-461; NP009052; made in house; host or cells: E. coli
T1 sequence (P55055 with tags, fused parts or gaps DUP175-175 limits assumed): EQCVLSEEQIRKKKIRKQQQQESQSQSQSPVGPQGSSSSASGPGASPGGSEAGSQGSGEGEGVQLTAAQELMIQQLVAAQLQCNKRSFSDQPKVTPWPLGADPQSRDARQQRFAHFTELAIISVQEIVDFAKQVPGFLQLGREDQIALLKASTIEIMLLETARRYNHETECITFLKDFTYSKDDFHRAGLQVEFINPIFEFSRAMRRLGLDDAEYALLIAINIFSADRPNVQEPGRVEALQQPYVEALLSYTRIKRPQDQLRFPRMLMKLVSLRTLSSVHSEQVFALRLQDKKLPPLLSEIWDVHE
Test: TR-FRETβ activity assay (NCoA3 coactivator peptide recruitment)
Type: biochemical
Conditions: TR-FRET, 1 μM 24(S)-25-epoxycholesterol prestimulation; read-out: FRETβ (EC50 range)
Outline: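 Inverse agonism assessed by loss of coactivator recruitment, read as TR-FRET 665/615 nm after 1 h equilibration at 4 °C, in triplicate. Ten-point titration from 50 μM to 0.002 μM against LXRβ LBD (76 nM, GST fusion) prestimulated with 1 μM 24(S)-25-epoxycholesterol, with 400 nM NCoA3 peptide, pH 6.8. Sulfonyl acetic acids kept as 20 mM DMSO stocks with 100 mM TFA.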

Structure (SMILES) | pEC50
O=C(O)c1ccc(-c2cccc(-c3c(-c4ccsc4C(F)(F)F)c4cc(F)ccc4n3S(=O)(=O)c3ccc(C(F)F)cc3)c2)c(Cl)c1 [11/22] | > 7.00
Cc1n[nH]c(C)c1-c1c(-c2cccc(-c3ccc(C(=O)O)cc3Cl)c2)n(S(=O)(=O)c2ccc(C(F)F)cc2)c2ccc(F)cc12 [11/24] | 6.00 to 7.00
O=C(O)c1ccc(-c2cccc(-c3c(-c4cn[nH]c4C(F)(F)F)c4cc(F)ccc4n3S(=O)(=O)c3ccc(C(F)F)cc3)c2)c(Cl)c1 [11/25] | 6.00 to 7.00
N#Cc1ccccc1-c1c(-c2cccc(-c3ccc(C(=O)O)c4c3OCO4)c2)n(S(=O)(=O)c2ccc(C(F)F)cc2)c2ccc(F)cc12 [11/28] | > 7.00
COc1cc(C(=O)O)ccc1-c1cccc(-c2c(-c3ccccc3C#N)c3cc(F)ccc3n2S(=O)(=O)c2ccc(C(F)F)cc2)c1 [11/29] | > 7.00
N#Cc1cc(C(=O)O)ccc1-c1cccc(-c2c(-c3ccccc3C#N)c3cc(F)ccc3n2S(=O)(=O)c2ccc(C(F)F)cc2)c1 [11/30] | > 7.00
N#Cc1ccccc1-c1c(-c2cccc(-c3ccc(C(=O)O)cc3F)c2)n(S(=O)(=O)c2ccc(C(F)F)cc2)c2ccc(F)cc12 [11/31] | > 7.00
N#Cc1ccccc1-c1c(-c2cccc(-c3ccc(C(=O)O)c(O)c3Cl)c2)n(S(=O)(=O)c2ccc(C(F)F)cc2)c2ccc(F)cc12 [11/32] | > 7.00
N#Cc1cccc(F)c1-c1c(-c2cccc(-c3ccc(C(=O)O)cc3Cl)c2)n(S(=O)(=O)c2ccc(C(F)F)cc2)c2ccc(F)cc12 [11/34] | > 7.00
Cc1cccc(C(F)F)c1-c1c(-c2cccc(-c3ccc(C(=O)O)cc3Cl)c2)n(S(=O)(=O)c2ccc(C(F)F)cc2)c2ccc(F)cc12 [11/38] | > 7.00
COc1cccnc1-c1c(-c2cccc(-c3ccc(C(=O)O)cc3Cl)c2)n(S(=O)(=O)c2ccc(C(F)F)cc2)c2ccc(F)cc12 [11/40] | 6.00 to 7.00
O=C(O)c1ccc(-c2cccc(-c3c(-c4ncccc4OC(F)F)c4cc(F)ccc4n3S(=O)(=O)c3ccc(C(F)F)cc3)c2)c(Cl)c1 [11/41] | > 7.00
N#CC1=C(c2c(-c3cccc(-c4ccc(C(=O)O)cc4Cl)c3)n(S(=O)(=O)c3ccc(C(F)F)cc3)c3ccc(F)cc23)CCCC1 [11/42] | < 5.00
O=C(O)c1ccc(-c2cccc(-c3c(-c4cccc5nncn45)c4cc(F)ccc4n3S(=O)(=O)c3ccc(C(F)F)cc3)c2)c(Cl)c1 [11/43] | 6.00 to 7.00
O=C(O)c1ccc(-c2cccc(-c3c(-c4cccc5c4OCO5)c4cc(F)ccc4n3S(=O)(=O)c3ccc(C(F)F)cc3)c2)c(Cl)c1 [11/44] | > 7.00
O=C(O)c1ccc(-c2cccc(-c3c(-c4cccc5nonc45)c4cc(F)ccc4n3S(=O)(=O)c3ccc(C(F)F)cc3)c2)c(Cl)c1 [11/45] | > 7.00

Molecular target: T2, full length (FL) LXRα (Homo sapiens, UniProt Q13133)
T2 construct: the full length (FL) proteins of LXRα (amino acids 1-447); NP005684; expressed in transfected cells; host or cells: HEK293
T2 sequence (Q13133 1-447): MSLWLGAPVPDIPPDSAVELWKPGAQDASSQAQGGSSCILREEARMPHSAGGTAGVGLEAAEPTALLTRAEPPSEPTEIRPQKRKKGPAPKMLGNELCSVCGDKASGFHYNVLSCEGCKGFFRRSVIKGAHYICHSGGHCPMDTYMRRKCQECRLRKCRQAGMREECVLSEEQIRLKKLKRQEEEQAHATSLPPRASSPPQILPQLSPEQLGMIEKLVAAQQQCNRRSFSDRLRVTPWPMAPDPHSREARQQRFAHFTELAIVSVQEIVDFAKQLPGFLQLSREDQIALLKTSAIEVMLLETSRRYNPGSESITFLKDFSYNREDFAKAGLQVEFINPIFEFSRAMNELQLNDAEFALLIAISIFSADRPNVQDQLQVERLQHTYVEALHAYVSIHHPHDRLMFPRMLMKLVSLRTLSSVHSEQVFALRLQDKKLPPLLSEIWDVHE
Test: LXR Gal4 reporter transient transfection assay (FL-M2H Gal4α)
Type: cell-based
Conditions: HEK293 cells, full length LXRα; read-out: FL-M2H Gal4α (EC50 range)
Outline: (§1)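 Luminescence readout: Firefly luciferase driven by GAL4 response elements reports LXR–cofactor interaction, normalised against cotransfected Renilla luciferase. The system used HEK293 cells expressing LXR full length or ligand-binding domain fused to the NFkB activation domain, with SRC1 or NCoR domains on GAL4 DBD; compound exposure was 16 h.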

Structure (SMILES) | pEC50
O=C(O)c1ccc(-c2cccc(-c3c(-c4ccsc4C(F)(F)F)c4cc(F)ccc4n3S(=O)(=O)c3ccc(C(F)F)cc3)c2)c(Cl)c1 [11/22] | > 7.00
Cc1n[nH]c(C)c1-c1c(-c2cccc(-c3ccc(C(=O)O)cc3Cl)c2)n(S(=O)(=O)c2ccc(C(F)F)cc2)c2ccc(F)cc12 [11/24] | 6.00 to 7.00
O=C(O)c1ccc(-c2cccc(-c3c(-c4cn[nH]c4C(F)(F)F)c4cc(F)ccc4n3S(=O)(=O)c3ccc(C(F)F)cc3)c2)c(Cl)c1 [11/25] | 6.00 to 7.00
N#Cc1ccccc1-c1c(-c2cccc(-c3ccc(C(=O)O)c4c3OCO4)c2)n(S(=O)(=O)c2ccc(C(F)F)cc2)c2ccc(F)cc12 [11/28] | > 7.00
COc1cc(C(=O)O)ccc1-c1cccc(-c2c(-c3ccccc3C#N)c3cc(F)ccc3n2S(=O)(=O)c2ccc(C(F)F)cc2)c1 [11/29] | > 7.00
N#Cc1cc(C(=O)O)ccc1-c1cccc(-c2c(-c3ccccc3C#N)c3cc(F)ccc3n2S(=O)(=O)c2ccc(C(F)F)cc2)c1 [11/30] | > 7.00
N#Cc1ccccc1-c1c(-c2cccc(-c3ccc(C(=O)O)cc3F)c2)n(S(=O)(=O)c2ccc(C(F)F)cc2)c2ccc(F)cc12 [11/31] | > 7.00
N#Cc1ccccc1-c1c(-c2cccc(-c3ccc(C(=O)O)c(O)c3Cl)c2)n(S(=O)(=O)c2ccc(C(F)F)cc2)c2ccc(F)cc12 [11/32] | > 7.00
N#Cc1cccc(F)c1-c1c(-c2cccc(-c3ccc(C(=O)O)cc3Cl)c2)n(S(=O)(=O)c2ccc(C(F)F)cc2)c2ccc(F)cc12 [11/34] | > 7.00
Cc1cccc(C(F)F)c1-c1c(-c2cccc(-c3ccc(C(=O)O)cc3Cl)c2)n(S(=O)(=O)c2ccc(C(F)F)cc2)c2ccc(F)cc12 [11/38] | > 7.00
COc1cccnc1-c1c(-c2cccc(-c3ccc(C(=O)O)cc3Cl)c2)n(S(=O)(=O)c2ccc(C(F)F)cc2)c2ccc(F)cc12 [11/40] | > 7.00
O=C(O)c1ccc(-c2cccc(-c3c(-c4ncccc4OC(F)F)c4cc(F)ccc4n3S(=O)(=O)c3ccc(C(F)F)cc3)c2)c(Cl)c1 [11/41] | > 7.00
N#CC1=C(c2c(-c3cccc(-c4ccc(C(=O)O)cc4Cl)c3)n(S(=O)(=O)c3ccc(C(F)F)cc3)c3ccc(F)cc23)CCCC1 [11/42] | 6.00 to 7.00
O=C(O)c1ccc(-c2cccc(-c3c(-c4cccc5nncn45)c4cc(F)ccc4n3S(=O)(=O)c3ccc(C(F)F)cc3)c2)c(Cl)c1 [11/43] | 6.00 to 7.00
O=C(O)c1ccc(-c2cccc(-c3c(-c4cccc5c4OCO5)c4cc(F)ccc4n3S(=O)(=O)c3ccc(C(F)F)cc3)c2)c(Cl)c1 [11/44] | > 7.00
O=C(O)c1ccc(-c2cccc(-c3c(-c4cccc5nonc45)c4cc(F)ccc4n3S(=O)(=O)c3ccc(C(F)F)cc3)c2)c(Cl)c1 [11/45] | > 7.00

Molecular target: T3, full length (FL) LXRβ (Homo sapiens, UniProt P55055, DUP175-175)
T3 construct: the full length (FL) proteins of LXRα (amino acids 1-447); NP005684; NP009052; expressed in transfected cells; host or cells: HEK293
T3 sequence (P55055 with tags, fused parts or gaps DUP175-175): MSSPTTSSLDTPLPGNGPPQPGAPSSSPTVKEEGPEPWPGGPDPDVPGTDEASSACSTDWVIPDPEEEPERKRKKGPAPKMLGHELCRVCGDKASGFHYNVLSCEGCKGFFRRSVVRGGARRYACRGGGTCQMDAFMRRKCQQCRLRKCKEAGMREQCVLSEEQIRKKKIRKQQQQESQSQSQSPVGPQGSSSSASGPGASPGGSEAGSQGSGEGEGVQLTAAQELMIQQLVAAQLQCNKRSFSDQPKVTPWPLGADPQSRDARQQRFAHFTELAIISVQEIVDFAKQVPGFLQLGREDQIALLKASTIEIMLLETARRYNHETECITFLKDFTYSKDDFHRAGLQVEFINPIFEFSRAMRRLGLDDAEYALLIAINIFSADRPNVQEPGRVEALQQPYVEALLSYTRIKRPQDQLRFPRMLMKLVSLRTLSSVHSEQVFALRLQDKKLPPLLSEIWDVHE
Test: LXR Gal4 reporter transient transfection assay (FL-M2H Gal4β)
Type: cell-based
Conditions: HEK293 cells, full length LXRβ; read-out: FL-M2H Gal4β (EC50 range)
Outline: as §1

Structure (SMILES) | pEC50
O=C(O)c1ccc(-c2cccc(-c3c(-c4ccsc4C(F)(F)F)c4cc(F)ccc4n3S(=O)(=O)c3ccc(C(F)F)cc3)c2)c(Cl)c1 [11/22] | > 7.00
Cc1n[nH]c(C)c1-c1c(-c2cccc(-c3ccc(C(=O)O)cc3Cl)c2)n(S(=O)(=O)c2ccc(C(F)F)cc2)c2ccc(F)cc12 [11/24] | 6.00 to 7.00
O=C(O)c1ccc(-c2cccc(-c3c(-c4cn[nH]c4C(F)(F)F)c4cc(F)ccc4n3S(=O)(=O)c3ccc(C(F)F)cc3)c2)c(Cl)c1 [11/25] | > 7.00
N#Cc1ccccc1-c1c(-c2cccc(-c3ccc(C(=O)O)c4c3OCO4)c2)n(S(=O)(=O)c2ccc(C(F)F)cc2)c2ccc(F)cc12 [11/28] | > 7.00
COc1cc(C(=O)O)ccc1-c1cccc(-c2c(-c3ccccc3C#N)c3cc(F)ccc3n2S(=O)(=O)c2ccc(C(F)F)cc2)c1 [11/29] | > 7.00
N#Cc1cc(C(=O)O)ccc1-c1cccc(-c2c(-c3ccccc3C#N)c3cc(F)ccc3n2S(=O)(=O)c2ccc(C(F)F)cc2)c1 [11/30] | > 7.00
N#Cc1ccccc1-c1c(-c2cccc(-c3ccc(C(=O)O)cc3F)c2)n(S(=O)(=O)c2ccc(C(F)F)cc2)c2ccc(F)cc12 [11/31] | > 7.00
N#Cc1ccccc1-c1c(-c2cccc(-c3ccc(C(=O)O)c(O)c3Cl)c2)n(S(=O)(=O)c2ccc(C(F)F)cc2)c2ccc(F)cc12 [11/32] | > 7.00
N#Cc1cccc(F)c1-c1c(-c2cccc(-c3ccc(C(=O)O)cc3Cl)c2)n(S(=O)(=O)c2ccc(C(F)F)cc2)c2ccc(F)cc12 [11/34] | > 7.00
Cc1cccc(C(F)F)c1-c1c(-c2cccc(-c3ccc(C(=O)O)cc3Cl)c2)n(S(=O)(=O)c2ccc(C(F)F)cc2)c2ccc(F)cc12 [11/38] | > 7.00
COc1cccnc1-c1c(-c2cccc(-c3ccc(C(=O)O)cc3Cl)c2)n(S(=O)(=O)c2ccc(C(F)F)cc2)c2ccc(F)cc12 [11/40] | > 7.00
O=C(O)c1ccc(-c2cccc(-c3c(-c4ncccc4OC(F)F)c4cc(F)ccc4n3S(=O)(=O)c3ccc(C(F)F)cc3)c2)c(Cl)c1 [11/41] | > 7.00
N#CC1=C(c2c(-c3cccc(-c4ccc(C(=O)O)cc4Cl)c3)n(S(=O)(=O)c3ccc(C(F)F)cc3)c3ccc(F)cc23)CCCC1 [11/42] | 6.00 to 7.00
O=C(O)c1ccc(-c2cccc(-c3c(-c4cccc5nncn45)c4cc(F)ccc4n3S(=O)(=O)c3ccc(C(F)F)cc3)c2)c(Cl)c1 [11/43] | 6.00 to 7.00
O=C(O)c1ccc(-c2cccc(-c3c(-c4cccc5c4OCO5)c4cc(F)ccc4n3S(=O)(=O)c3ccc(C(F)F)cc3)c2)c(Cl)c1 [11/44] | > 7.00
O=C(O)c1ccc(-c2cccc(-c3c(-c4cccc5nonc45)c4cc(F)ccc4n3S(=O)(=O)c3ccc(C(F)F)cc3)c2)c(Cl)c1 [11/45] | > 7.00
